According to PMC6325233, “A Novel Actin Binding Drug with In Vivo Efficacy” (Antimicrobial Agents and Chemotherapy, 2018):

Assays:
Fusarium solani 28386 = experiment: MIC susceptibility testing; type: cell-based; parameters: key to MIC, 50% inhibition: -: indicates absence of isolates with 50% inhibition endpoint; conditions: CLSI M38-A2
Procedure, shortened: (§1)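 Occidiofungin is isolated from a B. contaminans MS14 liquid culture. Susceptibility of the molds is then tested under the CLSI M38-A2 standard, and that of the yeast deletion strains, taken from the BY4741 knockout collection, under CLSI M27-A3.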

Mucor fragilis 27782 = experiment: MIC susceptibility testing; type: cell-based; parameters: key to MIC, 50% inhibition: -: indicates absence of isolates with 50% inhibition endpoint; conditions: CLSI M38-A2
Procedure, shortened: (§2)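 Read-out is the MIC, obtained per CLSI M27-A3 for the S. cerevisiae knockouts (BY4741 deletion set) and per CLSI M38-A2 for filamentous fungi exposed to occidiofungin.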

[1] = tested on: Candida parapsilosis 28174; experiment: MIC susceptibility testing; type: cell-based; parameters: key to MIC, 50% inhibition: -: indicates absence of isolates with 50% inhibition endpoint; conditions: CLSI M27-A3
Description: (§3) Occidiofungin was purified from a liquid culture of Burkholderia contaminans MS14 as previously described ([21]). MIC susceptibility testing was performed according to the CLSI M27-A3 and M38-A2 standards for the susceptibility testing of yeasts and filamentous fungi, respectively. S. cerevisiae deletion mutants were obtained from the commercially available BY4741 deletion library (Thermo Scientific).

Candida albicans 28102 = experiment: MIC susceptibility testing; type: cell-based; parameters: key to MIC, 50% inhibition: -: indicates absence of isolates with 50% inhibition endpoint; conditions: CLSI M27-A3
Description: as §3

Aspergillus flavus 28455 = experiment: MIC susceptibility testing; type: cell-based; parameters: key to MIC, 50% inhibition: -: indicates absence of isolates with 50% inhibition endpoint; conditions: CLSI M38-A2
Procedure, shortened: as §1

Rhizopus oryzae 28403 = experiment: MIC susceptibility testing; type: cell-based; parameters: key to MIC, 50% inhibition: -: indicates absence of isolates with 50% inhibition endpoint; conditions: CLSI M38-A2
Procedure, shortened: as §2

S. cerevisiae Δrom1 = experiment: MIC against deletion mutant; type: cell-based; conditions: Rho1-GEF
Description: as §3

S. cerevisiae Δsac6 = experiment: MIC against deletion mutant; type: cell-based; conditions: Actin bundling, Fimbrin
Description: as §3

S. cerevisiae Δmyo4 = experiment: MIC against deletion mutant; type: cell-based; conditions: Actin based motor activity, Type V motor
Description: as §3

S. cerevisiae Δbnr1 = experiment: MIC against deletion mutant; type: cell-based; conditions: Actin nucleation, Formin
Description: as §3

S. cerevisiae Δcap2 = experiment: MIC against deletion mutant; type: cell-based; conditions: Barbed-end actin capping protein
Description: as §3

S. cerevisiae Δbem2 = experiment: MIC against deletion mutant; type: cell-based; conditions: Rho-GAP for the CWI pathway
Description: as §3

S. cerevisiae Δmyo5 = experiment: MIC against deletion mutant; type: cell-based; conditions: Actin based motor activity, Type I motor
Description: as §3

S. cerevisiae Δtpm2 = experiment: MIC against deletion mutant; type: cell-based; conditions: Actin filament binding, Tropomyosin
Description: as §3

S. cerevisiae Δscp1 = experiment: MIC against deletion mutant; type: cell-based; conditions: Actin cross linker
Description: as §3

S. cerevisiae Δtus1 = experiment: MIC against deletion mutant; type: cell-based; conditions: Rho1p GEF
Description: as §3

S. cerevisiae Δrom2 = experiment: MIC against deletion mutant; type: cell-based; conditions: Rho1/2-GEF
Description: as §3

S. cerevisiae Δbni1 = experiment: MIC against deletion mutant; type: cell-based; conditions: Actin nucleation, Formin
Description: as §3

S. cerevisiae Δabp1 = experiment: MIC against deletion mutant; type: cell-based; conditions: ARP2/3 activator
Description: as §3

S. cerevisiae Δrdi1 = experiment: MIC against deletion mutant; type: cell-based; conditions: Rho GDP-inhibitor
Description: as §3

S. cerevisiae Δtpm1 = experiment: MIC against deletion mutant; type: cell-based
Description: as §3

S. cerevisiae Δarc18 = experiment: MIC against deletion mutant; type: cell-based; conditions: ARP2/3 subunit
Description: as §3

S. cerevisiae Δsac7 = experiment: MIC against deletion mutant; type: cell-based; conditions: Rho1-GAP
Description: as §3

S. cerevisiae Δrgl1 = experiment: MIC against deletion mutant; type: cell-based; conditions: Tus1p cofactor
Description: as §3

cancer cell lines = conditions: several cancer cell lines vs human fibroblast control; cited from earlier work
Description: Natural products with in vitro antifungal properties that target the actin cytoskeleton were previously reported ([51]). […] Occidiofungin, on the other hand, is well tolerated at 5 mg/kg or 20 mg/kg when administered intravenously or subcutaneously, respectively ([22], [25]). This dose is much higher than the MIC of occidiofungin against several fungal pathogens. ...

Substance: occidiofungin
- MIC, 50% inhibition (Fusarium solani 28386; 24 hours): 2 µg/mL
- MIC, 100% inhibition (Fusarium solani 28386; 24 hours): 4 µg/mL
- MIC, 50% inhibition (Fusarium solani 28386; 48 hours): -
- MIC, 100% inhibition (Fusarium solani 28386; 48 hours): 4 µg/mL
- MIC, 50% inhibition (Mucor fragilis 27782; 24 hours): 2 µg/mL
- MIC, 100% inhibition (Mucor fragilis 27782; 24 hours): 4 µg/mL
- MIC, 50% inhibition (Mucor fragilis 27782; 48 hours): -
- MIC, 100% inhibition (Mucor fragilis 27782; 48 hours): 4 µg/mL
- MIC, 50% inhibition ([1]; 24 hours): -
- MIC, 100% inhibition ([1]; 24 hours): 4 µg/mL
- MIC, 50% inhibition ([1]; 48 hours): -
- MIC, 100% inhibition ([1]; 48 hours): 4 µg/mL
- MIC, 50% inhibition (Candida albicans 28102; 24 hours): -
- MIC, 100% inhibition (Candida albicans 28102; 24 hours): 2 µg/mL
- MIC, 50% inhibition (Candida albicans 28102; 48 hours): -
- MIC, 100% inhibition (Candida albicans 28102; 48 hours): 2 µg/mL
- MIC, 50% inhibition (Aspergillus flavus 28455; 24 hours): 2 µg/mL
- MIC, 100% inhibition (Aspergillus flavus 28455; 24 hours): 4 µg/mL
- MIC, 50% inhibition (Aspergillus flavus 28455; 48 hours): -
- MIC, 100% inhibition (Aspergillus flavus 28455; 48 hours): 4 µg/mL
- MIC, 50% inhibition (Rhizopus oryzae 28403; 24 hours): 4 µg/mL
- MIC, 100% inhibition (Rhizopus oryzae 28403; 24 hours): 8 µg/mL
- MIC, 50% inhibition (Rhizopus oryzae 28403; 48 hours): -
- MIC, 100% inhibition (Rhizopus oryzae 28403; 48 hours): 8 µg/mL
- MIC (S. cerevisiae Δrom1): 0.25 µg/mL
- MIC (S. cerevisiae Δsac6): 0.25 µg/mL
- MIC (S. cerevisiae Δmyo4): 0.25 µg/mL
- MIC (S. cerevisiae Δbnr1): 0.25 µg/mL
- MIC (S. cerevisiae Δcap2): 0.25 µg/mL
- MIC (S. cerevisiae Δbem2): 0.25 µg/mL
- MIC (S. cerevisiae Δmyo5): 0.25 µg/mL
- MIC (S. cerevisiae Δtpm2): 0.25 µg/mL
- MIC (S. cerevisiae Δscp1): 0.25 µg/mL
- MIC (S. cerevisiae Δtus1): 0.25 µg/mL
- MIC (S. cerevisiae Δrom2): 0.25 µg/mL
- MIC (S. cerevisiae Δbni1): 0.25 µg/mL
- MIC (S. cerevisiae Δabp1): 0.25 µg/mL
- MIC (S. cerevisiae Δrdi1): 0.25 µg/mL
- MIC (S. cerevisiae Δtpm1; Actin filament binding, Tropomyosin): 1.0 µg/mL
- resistance to occidiofungin of Δtpm1 mutant (S. cerevisiae Δtpm1; vs parent, MIC): 4 -fold
- MIC (S. cerevisiae Δarc18): 0.25 µg/mL
- MIC (S. cerevisiae Δsac7): 0.25 µg/mL
- MIC (S. cerevisiae Δrgl1): 0.25 µg/mL
- sensitivity of several cancer cell lines vs human fibroblast cell line (cancer cell lines): approximately 10 -fold
